Assay results taken from ChEMBL document CHEMBL5113452, “Synthesis and biological evaluation of hybrids from optically active ring-opened 3-N-butylphthalide derivatives and 4-fluro-edaravone as potential anti-acute ischemic stroke agents” (Bioorg Med Chem, 2022).
The source made the active and inactive calls. The rule behind the calls is not given here.

Columns and labels:
[1] = Toxicity in transient middle cerebral artery occlusion induced ischemia stroke Sprague-Dawley rat model assessed as change in body weight at 5.90 mg/kg, iv and measured after 24 hrs; format: organism-based; details: in vivo, 5.9 mg/kg
[2] = tested on: Rattus norvegicus; assay: Neuroprotective activity against transient middle cerebral artery occlusion induced ischemia stroke Sprague-Dawley rat model assessed as increase in neuro-fucntional score at 5.9 mg/kg, iv and measured after 24 hrs in presence of 4-F-Eda by longa's method; format: functional, organism-based
[3] = tested on: Rattus norvegicus; assay: Neuroprotective activity against transient middle cerebral artery occlusion induced cerebral infraction Sprague-Dawley rat model assessed as decrease in cerebral infraction volume at 5.9 mg/kg, iv and measured after 24 hrs in presence of 4-F-Eda by TTC staining based assay; format: functional; design: scale not given: the % may be the effect or the level left
[4] = tested on: Rattus norvegicus; assay: Neuroprotective activity against transient middle cerebral artery occlusion induced cerebral infraction Sprague-Dawley rat model assessed as decrease in cerebral infraction volume at 5.9 mg/kg, iv and measured after 24 hrs by TTC staining based assay; format: functional; design: scale not given: the % may be the effect or the level left
[5] = tested on: Rattus norvegicus; assay: Neuroprotective activity against transient middle cerebral artery occlusion induced cerebral infraction Sprague-Dawley rat model assessed as decrease in brain edema at 5.9 mg/kg, iv and measured after 24 hrs in presence of 4-F-Eda; format: functional, organism-based
[6] = tested on: Rattus norvegicus; assay: Neuroprotective activity against transient middle cerebral artery occlusion induced ischemia stroke Sprague-Dawley rat model assessed as increase in neuro-fucntional score at 5.9 mg/kg, iv and measured after 24 hrs by longa's method; format: functional, organism-based
[7] = Toxicity in transient middle cerebral artery occlusion induced ischemia stroke Sprague-Dawley rat model assessed as change in body weight at 5.90 mg/kg, iv and measured after 24 hrs in presence of 4-F-Eda; format: organism-based; details: in vivo, 5.9 mg/kg
[8] = Clearance in Sprague-Dawley rat plasma at 4.48 mg/kg, iv and measured upto 24 hrs by LC-MS/MS analysis; format: ADME, organism-based
[9] = AUMC (0-t) in Sprague-Dawley rat plasma at 4.48 mg/kg, iv and measured upto 24 hrs by LC-MS/MS analysis; format: ADME, organism-based; details: in vivo
[10] = Half life in Sprague-Dawley rat plasma at 4.48 mg/kg, iv and measured upto 24 hrs in presence of 4-F-Eda by LC-MS/MS analysis; format: ADME, organism-based
[11] = Clearance in Sprague-Dawley rat plasma at 4.48 mg/kg, iv and measured upto 24 hrs in presence of 4-F-Eda by LC-MS/MS analysis; format: ADME, organism-based
[12] = AUMC (0-t) in Sprague-Dawley rat plasma at 4.48 mg/kg, iv and measured upto 24 hrs in presence of 4-F-Eda by LC-MS/MS analysis; format: ADME, organism-based; details: in vivo
[13] = tested on: Rattus norvegicus; assay: Neuroprotective activity against transient middle cerebral artery occlusion induced cerebral infraction Sprague-Dawley rat model assessed as decrease in brain edema at 4.48 mg/kg, iv and measured after 24 hrs in presence of EDA; format: functional, organism-based
[14] = Toxicity in transient middle cerebral artery occlusion induced ischemia stroke Sprague-Dawley rat model assessed as change in body weight at 4.48 mg/kg, iv and measured after 24 hrs in presence of EDA; format: organism-based; details: in vivo
[15] = MRT in Sprague-Dawley rat plasma at 4.48 mg/kg, iv and measured upto 24 hrs in presence of 4-F-Eda by LC-MS/MS analysis; format: ADME, organism-based
[16] = AUMC (0-infinity) in Sprague-Dawley rat plasma at 4.48 mg/kg, iv and measured upto 24 hrs in presence of 4-F-Eda by LC-MS/MS analysis; format: ADME, organism-based; details: in vivo
[17] = AUMC (0-infinity) in Sprague-Dawley rat plasma at 4.48 mg/kg, iv and measured upto 24 hrs by LC-MS/MS analysis; format: ADME, organism-based; details: in vivo
[18] = Cmax in Sprague-Dawley rat plasma at 4.48 mg/kg, iv and measured upto 24 hrs in presence of 4-F-Eda by LC-MS/MS analysis; format: ADME, organism-based; design: time < 24 hrs, dose 4.48 mg/kg, route iv
[19] = Volume of distribution at steady state in Sprague-Dawley rat plasma at 4.48 mg/kg, iv and measured upto 24 hrs by LC-MS/MS analysis; format: ADME, organism-based; details: read-out: Vdss
[20] = C0 in Sprague-Dawley rat plasma at 4.48 mg/kg, iv and measured upto 24 hrs by LC-MS/MS analysis; format: ADME, organism-based
[21] = Elimination rate constant in Sprague-Dawley rat plasma at 4.48 mg/kg, iv and measured upto 24 hrs by LC-MS/MS analysis; format: ADME, organism-based
[22] = C0 in Sprague-Dawley rat plasma at 4.48 mg/kg, iv and measured upto 24 hrs in presence of 4-F-Eda by LC-MS/MS analysis; format: ADME, organism-based
[23] = Cmax in Sprague-Dawley rat plasma at 4.48 mg/kg, iv and measured upto 24 hrs by LC-MS/MS analysis; format: ADME, organism-based; design: dose 4.48 mg/kg, time < 24 hrs, route iv
[24] = AUC (0-t) in Sprague-Dawley rat plasma at 4.48 mg/kg, iv and measured upto 24 hrs in presence of 4-F-Eda by LC-MS/MS analysis; format: ADME, organism-based; design: time < 24 hrs, dose 4.48 mg/kg, route iv
[25] = MRT in Sprague-Dawley rat plasma at 4.48 mg/kg, iv and measured upto 24 hrs by LC-MS/MS analysis; format: ADME, organism-based
[26] = AUC (0-t) in Sprague-Dawley rat plasma at 4.48 mg/kg, iv and measured upto 24 hrs by LC-MS/MS analysis; format: ADME, organism-based; design: time < 24 hrs, dose 4.48 mg/kg, route iv
[27] = Volume of distribution at steady state in Sprague-Dawley rat plasma at 4.48 mg/kg, iv and measured upto 24 hrs in presence of 4-F-Eda by LC-MS/MS analysis; format: ADME, organism-based; details: read-out: Vdss
[28] = AUC (0-infinity) in Sprague-Dawley rat plasma at 4.48 mg/kg, iv and measured upto 24 hrs by LC-MS/MS analysis; format: ADME, organism-based; design: time < 24 hrs, dose 4.48 mg/kg, route iv
[29] = tested on: Rattus norvegicus; assay: Neuroprotective activity against transient middle cerebral artery occlusion induced cerebral infraction Sprague-Dawley rat model assessed as decrease in cerebral infraction volume at 4.48 mg/kg, iv and measured after 24 hrs in presence of EDA by TTC staining based assay; format: functional; design: scale not given: the % may be the effect or the level left
[30] = tested on: Rattus norvegicus; assay: Neuroprotective activity against transient middle cerebral artery occlusion induced ischemia stroke Sprague-Dawley rat model assessed as increase in neuro-fucntional score at 4.48 mg/kg, iv and measured after 24 hrs in presence of Eda by longa's method; format: functional, organism-based
[31] = Elimination rate constant in Sprague-Dawley rat plasma at 4.48 mg/kg, iv and measured upto 24 hrs in presence of 4-F-Eda by LC-MS/MS analysis; format: ADME, organism-based
[32] = AUC (0-infinity) in Sprague-Dawley rat plasma at 4.48 mg/kg, iv and measured upto 24 hrs in presence of 4-F-Eda by LC-MS/MS analysis; format: ADME, organism-based; design: dose 4.48 mg/kg, time < 24 hrs, route iv
[33] = Half life in Sprague-Dawley rat plasma at 4.48 mg/kg, iv and measured upto 24 hrs by LC-MS/MS analysis; format: ADME, organism-based
[34] = tested on: Rattus norvegicus; assay: Neuroprotective activity against transient middle cerebral artery occlusion induced cerebral infraction Sprague-Dawley rat model assessed as decrease in brain edema at 10 mg/kg, iv and measured after 24 hrs; format: functional
[35] = tested on: Rattus norvegicus; assay: Neuroprotective activity against transient middle cerebral artery occlusion induced cerebral infraction Sprague-Dawley rat model assessed as decrease in cerebral infraction volume at 10 mg/kg, iv and measured after 24 hrs by TTC staining based assay; format: functional; design: scale not given: the % may be the effect or the level left
[36] = Toxicity in transient middle cerebral artery occlusion induced ischemia stroke Sprague-Dawley rat model assessed as change in body weight at 10 mg/kg, iv and measured after 24 hrs; format: organism-based; details: in vivo
[37] = tested on: Rattus norvegicus; assay: Neuroprotective activity against transient middle cerebral artery occlusion induced ischemia stroke Sprague-Dawley rat model assessed as increase in neuro-fucntional score at 10 mg/kg, iv and measured after 24 hrs by longa's method; format: functional, organism-based
[38] = tested on: Rattus norvegicus; assay: Neuroprotective activity against transient middle cerebral artery occlusion induced cerebral ischemia Sprague-Dawley rat model assessed as decrease in infract volume at 70 mg/kg, po and measured after 24 hrs by TTC staining based assay; format: functional; design: scale not given: the % may be the effect or the level left
[39] = tested on: Rattus norvegicus; assay: Neuroprotective activity against transient middle cerebral artery occlusion induced cerebral ischemia Sprague-Dawley rat model assessed as decrease in infract volume at 140 mg/kg, po and measured after 24 hrs by TTC staining based assay; format: functional; design: scale not given: the % may be the effect or the level left

In the case of `CCCC[C@H](OC(C)=O)c1ccccc1C(=O)O`, the Activity [1] is reported as “Non-Toxic”, the Activity [2] is reported as “Active” and the Activity [3] is reported as 68.37%. For the same molecule, the Activity [4] was 12.67%, the Activity [5] was “Active” and the Activity [6] was “Active”. The Activity [7] was “Non-Toxic”.

Molecule `CCCC[C@@H]1OC(=O)c2ccccc21` [(3S)-BUTYLPHTHALIDE] has a clearance [8] of 51.1 mL/min/kg, an AUMCt [9] of 943 hr.hr.ng/ml and a half-life [10] of 5.05 h. For the same molecule, the clearance [11] was 26.3 mL/min/kg, the AUMCt [12] was 3819 hr.hr.ng/ml and the Activity [13] was “Active”. For the same molecule, the Activity [14] was “Non-Toxic”, the MRT [15] was 1.74 h and the AUMC [16] was 5006 hr.hr.ng/ml. The AUMC [17] was 998 hr.hr.ng/ml, the Cmax [18] was 6920 ng/mL and the Vd [19] was 2.08 L/kg. It also gave a C0 at 24 h [20] of 5310 ng/mL, a k el at 24 h [21] of 0.000202 s⁻¹ and a C0 at 24 h [22] of 13000 ng/mL. It also gave a Cmax [23] of 3290 ng/mL, an AUC(0-t) at 24 h [24] of 2840 ng·h/mL and an MRT [25] of 0.678 h. For the same molecule, the AUC(0-t) at 24 h [26] was 1470 ng·h/mL, the Vd [27] was 2.73 L/kg and the AUC(0-inf) [28] was 1480 ng·h/mL. The Activity [29] was 57.7%, the Activity [30] was “Active” and the k el at 24 h [31] was 4.06e-05 s⁻¹. It also gave an AUC(0-inf) [32] of 2870 ng·h/mL and a half-life [33] of 0.97 h.

In the case of `CCCC[C@@H](OC(C)=O)c1ccccc1C(=O)Oc1cc(C)nn1-c1ccc(F)cc1`, the Activity [34] is reported as “Active”, the Activity [35] is reported as 67.56% and the Activity [36] is reported as “Non-Toxic”. The Activity [37] was “Active”.

With `CCCCC(OC(C)=O)c1ccccc1C(=O)Oc1cc(C)nn1-c1ccc(F)cc1` (racemic) the Activity [38] was 52.8%, the Activity [35] was 66.89% and the Activity [39] was 61.77%. For the same molecule, the Activity [36] was “Non-Toxic” and the Activity [37] was “Active”.
